Test results from PMC8452690, “Structural basis for small molecule targeting of Doublecortin Like Kinase 1 with DCLK1-IN-1” (Communications Biology, 2021).
Like-named read-outs stand apart in the source and are kept apart here. Marks after values point to notes of the source that are not given here.

Columns and labels:
DCLK1-FL1Δ D511N = biological target: T1, DCLK1-FL1Δ D511N (Homo sapiens, UniProt O15075, D511N); assay: SPR binding to immobilised DCLK1-FL1Δ D511N (non-phosphorylated); settings: for Kd: 18 °C, DCLK1 FL1Δ D511N immobilised, mean ± SEM
T1 construct: DCLK1-FL1Δ (residues 50-686); 8XHis tag with TEV protease cleavage site (N); made in house; host or cells: Escherichia coli C41(DE3)
Experimental: SPR studies were carried out on a Biacore 2000 instrument (Cytivia). Proteins were immobilised at 25 °C using standard amine coupling to a CM5 chip (Cytivia) in immobilisation buffer consisting of 10 mM HEPES pH 7.4, 150 mM NaCl, 1 mM TCEP, 0.005% Tween P20, 1% (v/v) DMSO. To the active flow, cells were coupled either DCLK1-FL1Δ D511N or WT to a final density of approximately 7000 RU, followed by surface deactivation with 1 M ethanolamine. For each protein, coupling was performed at a concentration of 2 µM protein in 10 mM sodium acetate buffer pH 4.0, 1% (v/v) DMSO final, in the presence 10 µM of the moderate affinity compound FMF-03-149-01 (IC50 ~400 nM)[28] to help to stabilise the kinase domain during immobilsiation at low pH. A blank immobilisation was performed on the reference flow cell.
Binding experiments were performed at 18 °C in running buffer consisting of 20 mM HEPES, pH 7.4, 150 mM NaCl, 1 mM tris(2-carboxyethyl)phosphine (TCEP), 0.005% (v/v) Tween-P20, and 2% (v/v) DMSO. Compounds (10 mM stocks in 100% DMSO) were diluted in DMSO to 500 µM (DCLK1-NEG) or 25 µM (all other compounds) then in running buffer (without DMSO) to achieve the starting concentration with a final DMSO concentration of 2% (v/v). Samples were then serially titrated in running buffer containing 2% (v/v) DMSO to prepare each final concentration series (seven-point, three-fold serial dilution, 10 µM−13.7 nM for DCLK1-NEG, or 500−0.68 nM for all other compounds). Solutions were injected in multi-cycle format (in duplicate) without regeneration (contact time 80 s, flow rate 75 μL/min, dissociation time 600 s), with an extra wash (50% DMSO) after each injection.
Steady-state/kinetic binding data were fitted using the S200 BIAevaluation software (GE Healthcare). Sensorgrams from reference surfaces and blank injections were subtracted from the raw data (double-referencing), followed by solvent correction. Kinetic rate constants (kon and koff values) were obtained by fitting to 1:1 Langmuir binding model. Reported binding data represent mean ± SEM for three or four independent experiments. The dissociative half-life life (t1/2) for each inhibitor complex with DCLK1 was calculated from the fitted dissociation rate constant (koff), according to the equation 1 (t1/2 = ln(2)/koff.)

[1] = biological target: T2, DCLK1-FL1Δ D511N tubulin polymerisation (MAP function) (Homo sapiens, UniProt O15075, D511N); assay: Fluorescence-based Tubulin Polymerisation Assay with DCLK1-FL1Δ D511N; format: biochemical; settings: 20 μM or 40 μM, fluorescence (Fig. 5e)
T2 construct: DCLK1-FL1Δ (residues 50-686); 8XHis tag with TEV protease cleavage site (N); made in house; host or cells: Escherichia coli C41(DE3)
T2 sequence (O15075 50-686 isoform O15075-2 D511N): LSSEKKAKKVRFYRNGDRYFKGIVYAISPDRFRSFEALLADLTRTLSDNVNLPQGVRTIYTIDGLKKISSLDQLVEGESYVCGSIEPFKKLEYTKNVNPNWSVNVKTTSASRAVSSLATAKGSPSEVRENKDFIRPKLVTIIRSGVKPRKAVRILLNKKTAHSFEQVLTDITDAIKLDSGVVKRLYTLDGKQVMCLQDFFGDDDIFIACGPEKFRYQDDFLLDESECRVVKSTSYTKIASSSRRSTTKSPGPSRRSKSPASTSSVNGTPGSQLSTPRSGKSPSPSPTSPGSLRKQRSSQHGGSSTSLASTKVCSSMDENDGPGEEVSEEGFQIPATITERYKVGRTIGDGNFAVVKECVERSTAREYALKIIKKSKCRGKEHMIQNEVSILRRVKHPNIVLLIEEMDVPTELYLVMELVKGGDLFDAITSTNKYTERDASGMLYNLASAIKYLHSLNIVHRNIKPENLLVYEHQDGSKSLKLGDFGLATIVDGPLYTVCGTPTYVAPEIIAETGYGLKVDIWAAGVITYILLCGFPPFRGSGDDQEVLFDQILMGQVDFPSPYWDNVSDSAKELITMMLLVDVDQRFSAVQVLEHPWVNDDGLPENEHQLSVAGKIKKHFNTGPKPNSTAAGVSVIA
Experimental: (§1) Tubulin polymerisation assay were performed using the Microtubule Polymerisation/Depolymerisation Fluorescence Kit (Cytoskeleton #BK011P) in accordance with the manufacturer’s instructions. DCLK1 (4 μΜ) was added to 50 μL tubulin reaction mix containing Buffer 1 (80 mM PIPES at pH 6.9, 2.0 mM MgCl2, 0.5 mM EGTA, 10 μM fluorescent reporter), guanosine triphosphate stock solution at 100 mM, and tubulin (10 mg/ml) stock solution, as described by the manufacturer. Paclitaxel, a control of tubulin polymerisation, was tested at 3 μM, and Νocodazole, a tubulin polymerisation inhibitor, was tested at 80 μΜ. DCLK1-IN-1 was tested at 20 and 40 μΜ with buffer alone as controls. Polymerisation leads to fluorescence enhancement due to incorporation of a fluorescence reporter into polymerising microtubules and was measured by excitation at 355 nm and emission at 460 nm. Readings were taken every 20 s on EnVision Multimode Plate Reader. Each condition was tested in duplicate with two independent batches of protein.

tubulin = assay: Tubulin polymerisation in the absence of DCLK1 (pelleting and fluorescence assays); format: biochemical; settings: absence of DCLK1-FL1Δ D511N
Experimental: Tubulin polymerisation assays were performed in buffer containing 80 mM PIPES at pH 6.9, 2.0 mM MgCl2, 0.5 mM EGTA, 2.5 mM β,γ-Methyleneguanosine 5’-triphosphate, and 10 μM tubulin and 5 μM DCLK1 for 1 h at 37 °C. For tubulin polymerisation in the presence of inhibitors, various concentrations of the inhibitors were first incubated with DCLK1 and allowed to stand on ice for 5 min before adding this mix to the tubulin polymerisation reaction. Following the tubulin polymerisation, the reaction mix was pelleted at 20,000 g for 20 min and the supernatant and the pellet fractions were run on a 12% SDS gel. The data shown are representative of two independent experiments.
as §1, with “Paclitaxel, a control of tubulin polymerisation, was tested at 3 μM, and Νocodazole, a tubulin polymerisation inhibitor, was tested at 80 μΜ. DCLK1-IN-1 was tested at 20 and 40 μΜ with buffer alone as controls.” left out, “Each condition was tested in duplicate with two independent batches of protein.” left out

COc1cc(N2CCN(C)CC2)ccc1Nc1ncc2c(n1)N(C)c1ccccc1C(=O)N2CC(F)(F)F [DCLK1-IN-1] was tested, and the “kon, kinetic fitting” value (DCLK1-FL1Δ D511N) was 5.1 ± 0.3 1/Ms (x 10^5), the “off-rate faster relative to FMF-03-055-01 or XMD8-85” value (DCLK1-FL1Δ D511N; SPR) was ~ 2 fold and the “on-rate slower relative to FMF-03-055-01 or XMD8-85” value (DCLK1-FL1Δ D511N; SPR) was ~ 2 fold. The “affinity weaker than FMF-03-055-01 or XMD8-85” value (DCLK1-FL1Δ D511N; SPR KD, DCLK1-FL1Δ D511N) was 4−5 fold, the Kd (DCLK1-FL1Δ D511N; SPR, read-out: KD, kinetic fitting (1:1 binding model)) was 0.053 µM and the Kd (DCLK1-FL1Δ D511N; SPR, read-out: KD, steady state fitting) was 0.07 ± 0.004 µM. For the same compound, the “reduction in DCLK1 affinity compared to FMF-03-055-1” value (DCLK1-FL1Δ D511N; discussion statement) was “five-fold reduction”, the koff (DCLK1-FL1Δ D511N; read-out: koff, kinetic fitting) was 0.027 ± 0.001 s⁻¹ and the kon (DCLK1-FL1Δ D511N; read-out: kon (Fig. 5c)) was 510000 ± 30000 M⁻¹ s⁻¹. For the same compound, the “effect on DCLK1-FL1Δ D511N ability to polymerise tubulin” value [1] was “did not impact” and the “tubulin polymerisation and stabilisation by compound alone” value (tubulin) was “does not promote tubulin polymerisaton and stabilisation”.
